Measurements: PMC3849818 (Journal of medicinal chemistry, 2013)

Tests used:
OX1 = settings: read-out: IC50 OX1; cited from earlier work
rats [1] = experiment: Conditioned place preference; type: in vivo, Sprague-Dawley rats
[2] = 2-methylbenzoxazole undergoes ring opening under acidic conditions; cited from earlier work
OX2 = settings: read-out: IC50 OX2; Actelion high throughput screening hit; cited from earlier work
OX2 receptor = target: T1, OX2 receptor (Homo sapiens, UniProt O43614); experiment: OX2 calcium mobilization functional assay; type: cell-based
T1 sequence (O43614 1-444): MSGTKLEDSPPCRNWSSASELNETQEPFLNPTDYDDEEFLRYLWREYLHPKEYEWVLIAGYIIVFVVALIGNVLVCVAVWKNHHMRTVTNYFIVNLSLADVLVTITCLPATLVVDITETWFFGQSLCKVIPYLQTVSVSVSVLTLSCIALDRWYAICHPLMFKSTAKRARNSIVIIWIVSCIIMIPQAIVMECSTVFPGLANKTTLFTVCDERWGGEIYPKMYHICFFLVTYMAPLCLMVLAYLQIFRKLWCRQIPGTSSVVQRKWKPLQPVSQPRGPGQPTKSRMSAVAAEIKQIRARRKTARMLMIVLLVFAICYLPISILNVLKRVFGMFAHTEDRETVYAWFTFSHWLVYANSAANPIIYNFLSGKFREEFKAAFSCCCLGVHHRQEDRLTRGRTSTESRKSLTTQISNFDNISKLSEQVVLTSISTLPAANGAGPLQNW

orexin 1 (OX1) receptor = target: T2, orexin 1 (OX1) receptor (Homo sapiens, UniProt O43613); experiment: OX1 calcium mobilization functional assay; type: cell-based; settings: for OX2/OX1: ratio of Ke values
T2 sequence (O43613 1-425): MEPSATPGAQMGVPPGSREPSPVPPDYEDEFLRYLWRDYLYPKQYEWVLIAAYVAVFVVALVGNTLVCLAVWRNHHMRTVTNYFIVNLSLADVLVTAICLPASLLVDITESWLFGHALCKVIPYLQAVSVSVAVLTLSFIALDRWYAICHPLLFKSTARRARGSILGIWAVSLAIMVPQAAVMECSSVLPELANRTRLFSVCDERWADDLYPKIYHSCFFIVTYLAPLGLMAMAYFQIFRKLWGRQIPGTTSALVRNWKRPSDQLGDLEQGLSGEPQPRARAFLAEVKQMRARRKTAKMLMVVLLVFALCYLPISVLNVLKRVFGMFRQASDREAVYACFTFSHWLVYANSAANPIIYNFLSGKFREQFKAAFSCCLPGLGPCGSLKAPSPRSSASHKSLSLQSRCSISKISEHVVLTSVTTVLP

rats [3] = experiment: Drug discrimination assay; type: in vivo; settings: 10 min pretreatment, data not shown

Row | SMILES | Kd (OX2 receptor) [µM] | OX2/OX1 (orexin 1 (OX1) receptor) | other results
1 | COc1ccc(C[C@H]2c3cc(OC)c(OC)cc3CCN2[C@@H](C(=O)NC(C)C)c2ccccc2)cc1OC [ACT-335827, reference compound] |  |  | IC50 (OX1): 0.006 µM
2 | COC(=O)[C@H]1[C@@H](OC(=O)c2ccccc2)C[C@@H]2CC[C@H]1N2C [Cocaine, reference compound] |  |  | CPP produced by drug alone (rats [1]; 10 mg/kg i.p., n=8-9): induced robust and significant CPP
3 | Cc1nc2ccc(NC(=O)Nc3ccnc4cccnc34)cc2o1.Cl [Compound 1] |  |  | hydrolytic stability [2]: hydrolytic instability
4 | COc1ccc(CC2c3cc(OC)c(OC)cc3CCN2CC(=O)NCc2ccccc2)cc1OC (centres unmarked) [Compound 6, N-benzyl-2-{1-[(3,4-dimethoxyphenyl)methyl]-6,7-dimethoxy-1,2,3,4-tetrahydroisoquinolin-2-yl}acetamide] | > 10 |  | IC50 (OX2): 8.1 µM
5 | COc1ccc(CC2c3cc(OCC(F)(F)F)c(OC)cc3CCN2CC(=O)NCc2ccccc2)cc1OC (centres unmarked) [Compound 28, N-benzyl-2-{1-[(3,4-dimethoxyphenyl)methyl]-6-methoxy-7-(2,2,2-trifluoroethoxy)-1,2,3,4-tetrahydroisoquinolin-2-yl}acetamide] | > 10 | >1060 | selectivity over the OX2 receptor (orexin 1 (OX1) receptor): over 1000 fold
6 | COc1ccc(CC2c3cc(OC)c(OC)cc3CCN2CC(=O)N(C)Cc2ccccc2)cc1OC (centres unmarked) [Compound 39, N-benzyl-2-{1-[(3,4-dimethoxyphenyl)methyl]-6,7-dimethoxy-1,2,3,4-tetrahydroisoquinolin-2-yl}-N-methylacetamide] | > 10 | >4.8 | 
7 | COc1ccc(CC2c3cc(OC)c(OC)cc3CCN2CC(=O)N[C@@H](C)c2ccccc2)cc1OC (stereo partly drawn) [Compound 49, 2-{1-[(3,4-dimethoxyphenyl)methyl]-6,7-dimethoxy-1,2,3,4-tetrahydroisoquinolin-2-yl}-N-[(1S)-1-phenylethyl]acetamide] |  |  | OX1 activity in words (orexin 1 (OX1) receptor; at 10 μM): inactive; OX2 activity in words (OX2 receptor; at 10 μM): inactive
8 | COc1ccc(CC2c3cc(OC)c(OC)cc3CCN2CC(=O)NCc2ccccn2)cc1OC (centres unmarked) [Compound 53, 2-{1-[(3,4-dimethoxyphenyl)methyl]-6,7-dimethoxy-1,2,3,4-tetrahydroisoquinolin-2-yl}-N-(pyridin-2-ylmethyl)acetamide] | > 10 | >38.3 | 
9 | COc1ccc(CC2c3cc(OC)c(OC)cc3CCN2CC(=O)NCc2cccnc2)cc1OC (centres unmarked) [Compound 54, 2-{1-[(3,4-dimethoxyphenyl)methyl]-6,7-dimethoxy-1,2,3,4-tetrahydroisoquinolin-2-yl}-N-(pyridin-3-ylmethyl)acetamide] | > 10 | >65.8 | 
10 | COc1ccc(CC2c3cc(OC)c(OC)cc3CCN2CC(=O)NCc2ccc(N(C)C)cc2)cc1OC (centres unmarked) [Compound 56, 2-{1-[(3,4-dimethoxyphenyl)methyl]-6,7-dimethoxy-1,2,3,4-tetrahydroisoquinolin-2-yl}-N-{[4-(dimethylamino)phenyl]methyl}acetamide] | > 10 | >3.1 | 
11 | CCCCCC(=O)Nc1ccc(CNC(=O)CN2CCc3cc(OC)c(OC)cc3C2Cc2ccc(OC)c(OC)c2)cc1 (centres unmarked) [Compound 58, N-{4-[(2-{1-[(3,4-dimethoxyphenyl)methyl]-6,7-dimethoxy-1,2,3,4-tetrahydroisoquinolin-2-yl}acetamido)methyl]phenyl}hexanamide] | 3.79 ± 0.67 | <0.4 | 
12 | CCCOc1cc2c(cc1OC)CCN(CC(=O)NCc1ccccn1)C2Cc1ccc(OC)c(OC)c1 (centres unmarked) [Compound 69, 2-{1-[(3,4-dimethoxyphenyl)methyl]-6-methoxy-7-propoxy-1,2,3,4-tetrahydroisoquinolin-2-yl}-N-(pyridin-2-ylmethyl)acetamide] | > 10 | >485 | 
13 | CCCOc1cc2c(cc1OC)CCN(CC(=O)NCc1cccnc1)C2Cc1ccc(OC)c(OC)c1 (centres unmarked) [Compound 70, 2-{1-[(3,4-dimethoxyphenyl)methyl]-6-methoxy-7-propoxy-1,2,3,4-tetrahydroisoquinolin-2-yl}-N-(pyridin-3-ylmethyl)acetamide] | > 10 | >239 | 
14 | COc1ccc(CC2c3cc(OCC(F)(F)F)c(OC)cc3CCN2CC(=O)NCc2ccccn2)cc1OC (centres unmarked) [Compound 71, 2-{1-[(3,4-dimethoxyphenyl)methyl]-6-methoxy-7-(2,2,2-trifluoroethoxy)-1,2,3,4-tetrahydroisoquinolin-2-yl}-N-(pyridin-2-ylmethyl)acetamide] | > 10 | >444 | 
15 | COc1ccc(CC2c3cc(OCC(F)(F)F)c(OC)cc3CCN2CC(=O)NCc2cccnc2)cc1OC (centres unmarked) [Compound 72, 2-{1-[(3,4-dimethoxyphenyl)methyl]-6-methoxy-7-(2,2,2-trifluoroethoxy)-1,2,3,4-tetrahydroisoquinolin-2-yl}-N-(pyridin-3-ylmethyl)acetamide] | > 10 | >1180 | behavioral activity in drug discrimination (rats [3]): behaviorally active; effect on development of place preference induced by cocaine (rats [1]; 20 mg/kg i.p. 10 min before cocaine 10 mg/kg, P < 0.05 vs cocaine): significantly attenuated; CPP produced by compound alone (rats [1]; 20 mg/kg i.p., n=8-9): did not produce CPP or place aversion
16 | CCOc1cc2c(cc1OC)CCN(CC(=O)NCc1ccccn1)C2Cc1ccc(OC)c(OC)c1 (centres unmarked) [Compound 73, 2-{1-[(3,4-dimethoxyphenyl)methyl]-7-ethoxy-6-methoxy-1,2,3,4-tetrahydroisoquinolin-2-yl}-N-(pyridin-2-ylmethyl)acetamide] | > 10 | >114 | 
17 | CCOc1cc2c(cc1OC)CCN(CC(=O)NCc1cccnc1)C2Cc1ccc(OC)c(OC)c1 (centres unmarked) [Compound 74, 2-{1-[(3,4-dimethoxyphenyl)methyl]-7-ethoxy-6-methoxy-1,2,3,4-tetrahydroisoquinolin-2-yl}-N-(pyridin-3-ylmethyl)acetamide] | > 10 | >637 | 
